# Test results taken from patent US20160220567A1, “COMPOSITION FOR TREATING OR PREVENTING BONE DISEASES, COMPRISING HALOFUGINONE AS ACTIVE INGREDIENT” (THE CATHOLIC UNIVERSITY OF KOREA INDUSTRY-ACADEMIC …, priority 2013, published 2016).
# Assays:
# [1] = tested on: osteoclasts from murine bone marrow cells; experiment: Bone resorption potential by osteoclasts on Dentine slice, murine bone marrow cells; assay type: cell-based, mouse; settings: M-CSF, RANKL, 21 days, FIG. 5B
# Method: (§1) To examine the effect of halofuginone on the bone resorption potential by osteoclasts, murine bone marrow cells were cultured in Dentine slice, and the cultured cells were stimulated with M-CSF, RANKL, and halofuginone, and cultured for 21 additional days. Then, the cells were removed using 5% sodium hypochlorite solution, subjected to Hematoxylin staining, and the bone resorption lacunae formed by the bone resorption of osteoclasts were photographed.
# [2] = tested on: osteoclasts from mononuclear cells of human peripheral blood; experiment: Bone resorption potential by osteoclasts in human cells; assay type: cell-based; settings: FIG. 6D
# Method: as §1
# The effect of halofuginone on the bone resorption potential by osteoclasts was observed using the mononuclear cells of human peripheral blood, in the same manner as described in Example <2-7>.
# osteoclasts = experiment: Cell cycle during osteoclast differentiation by 7-AAD and BrdU staining; assay type: cell-based, mouse; settings: FIG. 5D
# Excerpt: Murine bone marrow cells were differentiated for 5 days by stimulating with M-CSF, RANKL, and halofuginone and subjected to TRAP staining according to the method described in Example <1-8> to confirm the number of TRAP positive cells. Additionally, the expression of c-Fos, JunB, and Jpd2 in the bone marrow cells were confirmed by real-time PCR according to the method described in Example <1-6>. Meanwhile, to examine the effect of halofuginone on cell cycle during the process of osteoclast differentiation, osteoclasts were subjected to 7-AAD and BrdU staining.
# [3] = tested on: mononuclear cells of human peripheral blood; experiment: Differentiation of osteoclasts in mononuclear cells of human peripheral blood: TRAP staining and real-time PCR; assay type: cell-based; settings: M-CSF, RANKL, 9 days
# Method: The mononuclear cells of human peripheral blood were cultured for 9 days after stimulating with M-CSF, RANKL, and halofuginone. Then, the cells were stained by TRAP according to the manufacturer's manual, and the amount of mRNA of TRAP, NFATc1, calcitonin receptor (CTR), cathepsin K, MMP9, and RANK were confirmed by real-time PCR.
# [4] = tested on: joint tissue of mouse with arthritis; experiment: Degree of joint destruction by immunohistochemical staining of CIA mouse joints; assay type: in vivo; settings: CIA mice, according to the concentration of treatment, FIG. 1B
# Method: (§2) For the construction of a mouse model with collagen-induced arthritis (hereinafter, referred to as “CIA”), a 6-week old male DBA/1J mouse was subjected to primary immunization by intradermal injection after mixing the bovine type II collagen (hereinafter, referred to as “CII”) and complete Freud's adjuvant (CFA) in an amount of 100 μL, respectively. After a week thereafter, halofuginone was injected intraperitoneally at 3 day intervals at a concentration of 100 μg/kg and 500 μg/kg, respectively (9 weeks).
# To examine the therapeutic effect of treating halofuginone of the present invention on arthritis, the mouse prepared in Example <1-1> (the mouse with arthritis injected with halofuginone) was sacrificed and the degree of joint destruction was analyzed via immunohistochemical staining method. The group treated with a solution in which DMSO was diluted in saline was used as the control group.
# The immunohistochemical staining method was performed by the process shown below. The joints of the mice group used above were collected, fixed with 10% neutral buffered formalin, the bones were decalcified with EDTA and embedded in paraffin, the joint tissue was prepared into 7 μm-thick slices and attached to slides. […] The immunohistochemical staining method was used in the joints of mice and analyzed under an optical microscope. […]
# Rcan3 and Sox6 = experiment: Expression of Rcan3 and Sox6 in joint tissue of CII-immunized DBA/1J mice by immunohistochemical staining; assay type: in vivo, mouse; settings: 500 μg/kg intraperitoneally, 50 days, vs untreated group, FIG. 7
# Excerpt: Furthermore, to examine whether the halofuginone compound of the present invention can promote the differentiation and the activity of osteoblasts, the present inventors performed the following experiment for the purpose of confirming the effect of the halofuginone compound on the expression and the activity of Rcan3 and Sox6, which are factors associated with the differentiation of osteoblasts. Specifically, the DBA/1J mice were subjected to the primary immunization by intradermally injecting bovine type II collagen (hereinafter, “CII”) in an amount of 100 μL, and one week thereafter, injected intraperitoneally with halofuginone (500 μg/kg). Fifty days thereafter, the mice were sacrificed, and the expression levels of Rcan3 and Sox6 in the joint tissue of the mice were confirmed via immunohistochemical staining method. The group of mice not treated with halofuginone was used as the control group.
# The immunohistochemical staining method was performed as follows. The joints of the mice group used above were collected, fixed with 10% neutral buffered formalin, the bones were decalcified with Calci-Clear Rapid bone decalcifier and embedded in paraffin, the joint tissue was prepared into 7 μm-thick slices and attached to slides. […]
# [5] = tested on: osteoclasts (TRAP positive cells) in the joint; experiment: Osteoclast differentiation potential in the joint of arthritis animal model by TRAP staining; assay type: in vivo, mouse; settings: joint of CIA mice, FIG. 4A
# Method: as §2
# To examine the osteoclast differentiation potential in the joint of the animal model with arthritis by TRAP staining, the marker enzyme of osteoclasts were subjected to TRAP staining using the leukocyte acid phosphatase Kit (387-A, Sigma, St. Louis, Mo., USA) according to the manufacturer's manual. The cells having at least 5 nuclei among the TRAP positive cells (red color) were regarded as osteoclasts.
# IL-17 and IL-6 = experiment: Inflammatory cytokines IL-17 and IL-6 in joint tissue staining / sera ELISA of CIA mice; assay type: in vivo, mouse; settings: FIG. 1C
# Method: as §2
# [6] = dose-dependent, FIGS. 6B and 6C
smiles,measurement,setting,value
O=C(C[C@H]1NCCC[C@@H]1O)Cn1cnc2cc(Br)c(Cl)cc2c1=O (racemic) [halofuginone],bone resorption potential,[1],significantly reduced
same,bone resorption potential,[2],significantly reduced
same,progress from G0/G1 into S phase,osteoclasts; 7-AAD and BrdU staining,increased
same,expression of ccnd1 encoding Cyclin D1,osteoclasts,increased
same,differentiation of osteoclasts,[3],effectively inhibit
same,mRNA expression of MMP9,[3]; [6],decreased
same,mRNA expression of NFATc1,[3]; [6],decreased
same,mRNA expression of RANK,[3]; [6],decreased
same,mRNA expression of TRAP,[3]; [6],decreased
same,mRNA expression of calcitonin receptor(CTR),[3]; [6],decreased
same,mRNA expression of cathepsin K,[3]; [6],decreased
same,joint destruction,[4],significantly decrease
same,expression of Rcan3,Rcan3 and Sox6,significant increase
same,expression of Sox6,Rcan3 and Sox6,significant increase
same,number of TRAP positive cells,[5],decreased
same,level of inflammatory cytokine IL-6,IL-17 and IL-6,significantly decrease
same,level of inflammatory cytokine IL-17,IL-17 and IL-6,significantly decrease
